Measured values: US20170306409A1, “CANCER PATIENT SELECTION FOR ADMINISTRATION OF WNT SIGNALING INHIBITORS USING RNF43 MUTATION STATUS” (NOVARTIS AG, priority 2012, published 2017)

Columns and labels:
Format in all cases: cell-based, human
RNF43 mutant cells = assay: foci formation assay with recombinant Wnt3a; conditions: 1 μM of LGK974 together with recombinant Wnt3a
Source text: We next characterized Wnt-dependency in pancreatic cancer cell lines.

[1] = tested on: AXIN2, pancreatic cancer cell lines; assay: AXIN2 expression across pancreatic cancer cell line panel; conditions: 22 of 29 cell lines
Method: (§1) For reverse transcription and quantitative PCR (qPCR), total RNA was extracted from cells or tumors using the RNeasy Plus Mini Kit (Qiagen). 1 μg of RNA were reverse transcribed with Taqman Reverse Transcription Reagents (Applied Biosystems) according to the manufacturer's instruction. Quantitative PCR was performed in 12 μl reactions consisting of 0.6 μl of 20× Taqman probe and PCR primer mix, 6 μl 2× Taqman FAST Advanced Master Mix (Applied Biosystems), and 5.4 μl diluted cDNA template. The thermocycling conditions utilized were 20 seconds at 95° C., followed by 40 cycles of 1 second at 95° C. and 20 seconds at 60° C. All experiments were performed in quadruplicates. Gene expression analysis was performed using the comparative ΔΔCT method and normalized with the housekeeping gene GUSB or 18S. The Taqman probes were purchased from Applied Biosystems.

Axin2, PSN-1 = assay: Axin2 qPCR assay (pathway inhibition)
Method: as §1

Axin2, DanG = assay: Axin2 qPCR assay (pathway inhibition)
Method: as §1

Axin2, CFPAC-1 = assay: Axin2 qPCR assay (pathway inhibition)
Method: as §1

Axin2, Panc03.27 = assay: Axin2 qPCR assay (pathway inhibition)
Method: as §1

Axin2, KP3 = assay: Axin2 qPCR assay (pathway inhibition)
Method: as §1

Axin2, Capan-2 = assay: Axin2 qPCR assay (pathway inhibition)
Method: as §1

Axin2, PK1 = assay: Axin2 qPCR assay (pathway inhibition)
Method: as §1

Axin2, KP-1NL = assay: Axin2 qPCR assay (pathway inhibition)
Method: as §1

Axin2, HuPT4 = assay: Axin2 qPCR assay (pathway inhibition)
Method: as §1

Axin2, PaTu-8902 = assay: Axin2 qPCR assay (pathway inhibition)
Method: as §1

Axin2, PaTu-8988S = assay: Axin2 qPCR assay (pathway inhibition)
Method: as §1

Axin2, PL45 = assay: Axin2 qPCR assay (pathway inhibition)
Method: as §1

Axin2, QGP-1 = assay: Axin2 qPCR assay (pathway inhibition)
Method: as §1

Axin2, HPAFII = assay: Axin2 qPCR assay (pathway inhibition)
Method: as §1

Axin2, Panc10.05 = assay: Axin2 qPCR assay (pathway inhibition)
Method: as §1

Axin2, PK59 = assay: Axin2 qPCR assay (pathway inhibition)
Method: as §1

Axin2, KP1-N = assay: Axin2 qPCR assay (pathway inhibition)
Method: as §1

Axin2, KP4 = assay: Axin2 qPCR assay (pathway inhibition)
Method: as §1

Axin2, L3.3 = assay: Axin2 qPCR assay (pathway inhibition)
Method: as §1

Axin2, Capan-1 = assay: Axin2 qPCR assay (pathway inhibition)
Method: as §1

Axin2, KP2 = assay: Axin2 qPCR assay (pathway inhibition)
Method: as §1

RNF43 mutant cell lines = assay: EdU proliferation assay; conditions: 1 μM LGK974, 3 days
Method: Further, LGK974 induced the expression of differentiation marker MUC2, MUC5A/C in RNF43 mutant cells. LGK974 blocked EDU incorporation in RNF43 mutant cell lines, so Wnt inhibition in these cells leads to cell cycle arrest. LGK974-induced growth inhibition and cellular differentiation of RNF43 mutant cells are also obvious using Ki67 staining (anti-Ki67 (SP6) from Vector Laboratories, Burlingame, Calif., USA 94010) and Alcian Blue staining.
For the EdU proliferation assay, cells were plated in growth medium in 96 well plate at a density of 6000-12,000 cells per well, and treated with DMSO or 1 μM LGK974. After 3 days, the cells were treated with fresh growth medium containing 20 μM EdU, which was included in the Click-iT EdU Alexa Fluor 488 HCS assay kit (Invitrogen), and the plate was incubated for 2 hr at 37° C. in a humidified atmosphere containing 5% CO2. Cells were fixed with final 4% paraformaldehyde for 30 min, washed with PBS, permeabilized, and stained with 0.75% TritonX-100 and 50 μg/ml Hoechst in PBS for 30 min. After wash, the cells were proceeded EdU detection according to the instruction of Click-iT EdU assay kit. Triplet wells were performed for each condition.

[2] = tested on: STF Wnt reporter, YAPC-STF cells; assay: SuperTOPFlash (STF) luciferase reporter assay; conditions: absence of exogenous Wnt3a, LGK974 or IWP-2
Method: For the luciferase reporter assay, YAPC-STF reporter cells were transfected with siRNA and treated with Wnt3a conditioned medium or compound where applicable. STF luciferase assays were performed using BrightGlo Luciferase Assay kits (Promega) according to the manufacturer's instructions.
To construct pancreatic cell lines expressing STF reporter, HEK293 cells were grown in medium recommended by ATCC supplemented with 10% FBS. Retrovirus or lentivirus was produced from HEK293 cells by standard virus packaging procedure using FuGENE 6 (Roche) transfection reagent. Pancreatic cell lines expressing STF reporter, RNF43 constructs, or DOX-inducible β-catenin shRNA were generated by viral infection and drug selection.
Depletion of RNF43 induces Dvl phosphorylation and β-catenin stabilization. […] RNF43 siRNA-induced STF activity in the absence of exogenous Wnt3a is inhibited by LGK974 and a previously known Porcupine inhibitor IWP-2. Chen B et al. (2009) Nat. Chem. Biol. 5(2):100-7. See, FIG. 3(b), showing that this activity is dependent on the expression of endogenous Wnt proteins.

Cc1cc(-c2ncc(CC(=O)Nc3ccc(-c4cnccn4)cn3)cc2C)ccn1 [LGK974, 2-[5-methyl-6-(2-methylpyridin-4-yl)pyridin-3-yl]-N-[5-(pyrazin-2-yl)pyridin-2-yl]acetamide]
blocked: EDU incorporation (RNF43 mutant cell lines)
Yes: Pathway inhibition in Axin2 qPCR assay (Axin2, PSN-1) | Pathway inhibition in Axin2 qPCR assay (Axin2, Panc03.27) | Pathway inhibition in Axin2 qPCR assay (Axin2, KP3) | Pathway inhibition in Axin2 qPCR assay (Axin2, Capan-2) | Pathway inhibition in Axin2 qPCR assay (Axin2, PK1) | Pathway inhibition in Axin2 qPCR assay (Axin2, KP-1NL) | Pathway inhibition in Axin2 qPCR assay (Axin2, PaTu-8902) | Pathway inhibition in Axin2 qPCR assay (Axin2, PaTu-8988S) | Pathway inhibition in Axin2 qPCR assay (Axin2, HPAFII) | Pathway inhibition in Axin2 qPCR assay (Axin2, Panc10.05) | Pathway inhibition in Axin2 qPCR assay (Axin2, PK59) | Pathway inhibition in Axin2 qPCR assay (Axin2, KP1-N) | Pathway inhibition in Axin2 qPCR assay (Axin2, KP2)
76%: share of pancreatic cancer cell lines with decreased expression of AXIN2 [1]
No: Pathway inhibition in Axin2 qPCR assay (Axin2, DanG) | Pathway inhibition in Axin2 qPCR assay (Axin2, CFPAC-1) | Pathway inhibition in Axin2 qPCR assay (Axin2, HuPT4) | Pathway inhibition in Axin2 qPCR assay (Axin2, PL45) | Pathway inhibition in Axin2 qPCR assay (Axin2, QGP-1) | Pathway inhibition in Axin2 qPCR assay (Axin2, KP4) | Pathway inhibition in Axin2 qPCR assay (Axin2, L3.3) | Pathway inhibition in Axin2 qPCR assay (Axin2, Capan-1)
inhibited: RNF43 siRNA-induced STF activity [2]
rescued: growth inhibitory effect with exogenous Wnt3a (RNF43 mutant cells)
